Measured values: US11191742B2, “Methods of treating neurodegenerative disorders in a particular population” (ALZHEON, INC., priority 2015, dated 2021)

Key:
[1] = system: APOE4+ patients with Alzheimer's disease; assay: Phase 3 trials of tramiprosate, ADAS-Cog score, all APOE4+ patients; format: in vivo, human; details: for ADAS-Cog Score Change over Standard of Care (Δ improvement vs control): All APOE4+ patients ≤85 years
Description: (§1) The delta value in all of these tables is calculated by measuring the increase in score over baseline for each patient in a treatment group and obtaining the mean increase for such group and then subtracting that value from the mean increase in score over baseline for all patients in the placebo group. Thus, a positive delta value in these tables represents an improvement over the placebo group. Phase 3 human clinical trials of tramiprosate to treat Alzheimer's disease at doses of 100 mg BID and 150 mg BID for up to 78 weeks were run in both North America and Europe (1691 total patients enrolled). Placebos in both trials were treatment with donepezil either alone or in combination with memantine. ADAS-Cog scores and CDR-SB scores were obtained every 13 weeks for patients that remained in the trial. The patients were genotyped for APOE4 and the severity of their disease was measured using MMSE prior to the beginning of treatment. The data from both trials were merged for certain statistical analyses. […] We then performed additional subgroup analysis, subgrouping by APOE4 genotype/allele status (APOE4 heterozygous or APOE4 homozygous) and by disease severity (mild vs moderate) to determine if the number of c alleles and/or the severity of disease predicted a better outcome of tramiprosate therapy. […] In Table 1, *control treatment is donepezil either alone or in combination with memantine. Positive delta values quantitate the amount by which average increase in ADAS-Cog Score points above baseline for the control group exceeded the average increase in ADAS-Cog Score points above baseline for the treatment group.

[2] = system: APOE4 heterozygous patients with Alzheimer's disease; assay: Phase 3 trials of tramiprosate, ADAS-Cog score, heterozygous APOE4+ patients; format: in vivo, human; details: Heterozygous APOE4+ patients ≤85 years
Description: as §1, with “3,” for “1,”

[3] = Mild (MMSE 20-26), 100 mg BID, 52 weeks
[4] = Mild (MMSE 20-26), 100 mg BID, 65 weeks
[5] = Mild (MMSE 20-26), 100 mg BID, 78 weeks
[6] = Mild (MMSE 20-26), 150 mg BID, 52 weeks
[7] = Mild (MMSE 20-26), 150 mg BID, 65 weeks
[8] = Mild (MMSE 20-26), 150 mg BID, 78 weeks
[9] = Mild-to-Moderate (MMSE 16-26), 100 mg BID, 52 weeks
[10] = Mild-to-Moderate (MMSE 16-26), 100 mg BID, 65 weeks
[11] = Mild-to-Moderate (MMSE 16-26), 100 mg BID, 78 weeks
[12] = Mild-to-Moderate (MMSE 16-26), 150 mg BID, 52 weeks
[13] = Mild-to-Moderate (MMSE 16-26), 150 mg BID, 65 weeks
[14] = Mild-to-Moderate (MMSE 16-26), 150 mg BID, 78 weeks
[15] = Moderate (MMSE 16-19), 100 mg BID, 52 weeks
[16] = Moderate (MMSE 16-19), 100 mg BID, 65 weeks
[17] = Moderate (MMSE 16-19), 100 mg BID, 78 weeks
[18] = Moderate (MMSE 16-19), 150 mg BID, 52 weeks
[19] = Moderate (MMSE 16-19), 150 mg BID, 65 weeks
[20] = Moderate (MMSE 16-19), 150 mg BID, 78 weeks

NCCCS(=O)(=O)O [Tramiprosate, 3-amino-1-propanesulfonic acid]
Effect on ADAS-Cog compared with the placebo ([1]; APOE4+ subgroup, both 100 mg and 150 mg treatment groups): statistically significant effect | ADAS-Cog Score Change over Standard of Care (Δ improvement vs control) [1, 3]: 0.82 points | ADAS-Cog Score Change over Standard of Care (Δ improvement vs control) [1, 4]: 0.99 points | ADAS-Cog Score Change over Standard of Care (Δ improvement vs control) [1, 5]: 1.3 points | ADAS-Cog Score Change over Standard of Care (Δ improvement vs control) [1, 6]: 0.17 points | ADAS-Cog Score Change over Standard of Care (Δ improvement vs control) [1, 7]: 0.71 points | ADAS-Cog Score Change over Standard of Care (Δ improvement vs control) [1, 8]: 0.27 points | ADAS-Cog Score Change over Standard of Care (Δ improvement vs control) [1, 9]: 1.67 points | ADAS-Cog Score Change over Standard of Care (Δ improvement vs control) [1, 10]: 1.82 points | ADAS-Cog Score Change over Standard of Care (Δ improvement vs control) [1, 11]: 2.03 points | ADAS-Cog Score Change over Standard of Care (Δ improvement vs control) [1, 12]: 0.95 points | ADAS-Cog Score Change over Standard of Care (Δ improvement vs control) [1, 13]: 1.23 points | ADAS-Cog Score Change over Standard of Care (Δ improvement vs control) [1, 14]: 0.77 points | ADAS-Cog Score Change over Standard of Care (Δ improvement vs control) [1, 15]: 3.45 points | ADAS-Cog Score Change over Standard of Care (Δ improvement vs control) [1, 16]: 3.45 points | ADAS-Cog Score Change over Standard of Care (Δ improvement vs control) [1, 17]: 3.32 points | ADAS-Cog Score Change over Standard of Care (Δ improvement vs control) [1, 18]: 2.52 points | ADAS-Cog Score Change over Standard of Care (Δ improvement vs control) [1, 19]: 2.23 points | ADAS-Cog Score Change over Standard of Care (Δ improvement vs control) [1, 20]: 1.57 points | ADAS-Cog Score Change over Standard of Care (Δ improvement vs control) [2, 3]: 0.9 points | ADAS-Cog Score Change over Standard of Care (Δ improvement vs control) [2, 4]: −0.3 points | ADAS-Cog Score Change over Standard of Care (Δ improvement vs control) [2, 5]: 0.8 points | ADAS-Cog Score Change over Standard of Care (Δ improvement vs control) [2, 6]: 0.1 points | ADAS-Cog Score Change over Standard of Care (Δ improvement vs control) [2, 7]: −0.6 points | ADAS-Cog Score Change over Standard of Care (Δ improvement vs control) [2, 8]: −0.5 points | ADAS-Cog Score Change over Standard of Care (Δ improvement vs control) [2, 9]: 2.0 points | ADAS-Cog Score Change over Standard of Care (Δ improvement vs control) [2, 10]: 0.8 points | ADAS-Cog Score Change over Standard of Care (Δ improvement vs control) [2, 11]: 1.1 points | ADAS-Cog Score Change over Standard of Care (Δ improvement vs control) [2, 12]: 0.5 points | ADAS-Cog Score Change over Standard of Care (Δ improvement vs control) [2, 13]: 0.0 points | ADAS-Cog Score Change over Standard of Care (Δ improvement vs control) [2, 14]: −0.4 points | ADAS-Cog Score Change over Standard of Care (Δ improvement vs control) [2, 15]: 4.4 points | ADAS-Cog Score Change over Standard of Care (Δ improvement vs control) [2, 16]: 3.4 points | ADAS-Cog Score Change over Standard of Care (Δ improvement vs control) [2, 17]: 2 points | ADAS-Cog Score Change over Standard of Care (Δ improvement vs control) [2, 18]: 1.5 points | ADAS-Cog Score Change over Standard of Care (Δ improvement vs control) [2, 19]: 1.4 points | ADAS-Cog Score Change over Standard of Care (Δ improvement vs control) [2, 20]: 0 points
